Read-outs that look alike come from different tables or passages of the source.

Assay [1] relates to P2Y receptor (aorta endothelium). The experiment in a line: Relaxation of noradrenalin-contracted rabbit aorta. As to conditions: for relaxation pD2, aorta: rabbit aorta, log molar units.
Procedure: (§1) In FIG. 14, the x-axis is also marked in units of the negative log of the molar concentration of applied putative P2Y receptor agonists and the y-axis is marked in units of the percentage relaxation of the 1 μM noradrenalin-induced contraction of rabbit aorta endothelium. In FIGS. 15-16, the x-axis is marked in units of the negative log of the molar concentration of applied putative p^2X receptor agonists and the y-axis is marked in units of the percentage contraction relative to a standard dose of KCl (i.e., 60 mM), as assessed in guinea pig isolated urinary bladder detrussor muscle (FIG. 15) and guinea pig isolated vas deferens (FIG. 16).
Assay [2] has as its target T1, P2X receptor (urinary bladder) (Cavia porcellus, UniProt A0A286XVA9).
T1 construct: guinea pig isolated urinary bladder detrussor muscle; from tissue; host or cells: guinea pig isolated urinary bladder detrusor muscle
The experiment in a line: Contraction of guinea pig isolated urinary bladder detrussor muscle. The following applies: guinea pig urinary bladder.
Procedure: as §1

The target of assay [3] is T2, P2X receptor (saphenous artery) (Oryctolagus cuniculus, UniProt G1U3D6).
T2 construct: and rabbit saphenous artery; from tissue; host or cells: rabbit saphenous artery
T2 sequence (G1U3D6 1-399): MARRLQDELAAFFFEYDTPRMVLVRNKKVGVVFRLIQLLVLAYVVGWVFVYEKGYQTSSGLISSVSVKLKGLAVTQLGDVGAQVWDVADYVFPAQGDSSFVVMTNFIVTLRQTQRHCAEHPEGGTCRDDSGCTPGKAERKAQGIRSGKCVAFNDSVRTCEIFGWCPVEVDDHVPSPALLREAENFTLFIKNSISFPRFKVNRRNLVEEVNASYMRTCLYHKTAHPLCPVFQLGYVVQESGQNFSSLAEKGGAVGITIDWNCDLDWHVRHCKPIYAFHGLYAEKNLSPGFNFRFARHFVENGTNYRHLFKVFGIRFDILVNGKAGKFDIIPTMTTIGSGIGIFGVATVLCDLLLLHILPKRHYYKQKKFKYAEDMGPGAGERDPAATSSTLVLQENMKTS
The experiment in a line: Contraction of rabbit saphenous artery. As to conditions: rabbit saphenous artery; for activation at 10 µM: read-out: response at 10 μM relative to the contraction produced by 1 μM α,MeATP, saph. artery. From the text: Muscular relaxation/contraction: Relaxant responses mediated via P2Y receptors were examined in guinea pig taenia coli, rabbit aorta, and rabbit mesenteric artery, as described by Hoyle et al. (Br. J. Pharmacol., 107, 367-374 (1992a)), Burnstock et al., (Br. J. Pharmacol., 90, 383-391 (1987a)), and Rubino et al., (Eur. J. Pharmacol., 212, 237-240 (1992)). Contractile responses mediated via P2X receptors were examined in the guinea pig urinary bladder and vas deferens, and rabbit saphenous artery, also using standard methods (see Hoyle et al., supra., 1992; Hoyle et al., Br. J. Pharmacol., 99, 617-621 (1990); and Burnstock et al., Br. J. Pharmacol., 90, 111-120 (1987b)).
^c For the saphenous artery, the percentages in brackets are response
at 10 μM relative to the contraction produced by 1 μM α,MeATP
ATP in this assay is very weak (EC50 =
1.78 mM). The highest concentrations of the analogues tested were 3-30

The test system of assay [4] is P2X and P2Y receptors. The experiment in a line: Overall activity in the seven P2X and P2Y preparations.
Assay [5] deals with T3, P2X receptor (vas deferens) (Cavia porcellus, UniProt A0A286XVA9).
T3 sequence (A0A286XVA9 1-399): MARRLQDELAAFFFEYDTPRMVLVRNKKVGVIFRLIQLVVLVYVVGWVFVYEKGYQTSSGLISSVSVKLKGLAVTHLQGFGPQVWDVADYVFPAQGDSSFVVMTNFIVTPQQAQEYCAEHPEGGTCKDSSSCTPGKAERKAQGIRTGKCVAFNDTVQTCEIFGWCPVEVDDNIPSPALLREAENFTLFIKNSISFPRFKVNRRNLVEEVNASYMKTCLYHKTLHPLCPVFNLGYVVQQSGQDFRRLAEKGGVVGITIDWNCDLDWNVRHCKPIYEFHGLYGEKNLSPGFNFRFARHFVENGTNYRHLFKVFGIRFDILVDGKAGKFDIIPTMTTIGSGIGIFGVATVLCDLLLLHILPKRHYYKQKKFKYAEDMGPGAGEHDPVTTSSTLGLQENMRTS
The experiment in a line: Contraction of guinea pig isolated vas deferens.

The target of assay [6] is T4, P2Y receptor (turkey erythrocyte membranes) (Meleagris gallopavo, UniProt P49652).
T4 construct: from tissue; host or cells: washed turkey erythrocytes, ghosts prepared by hypotonic lysis
T4 sequence (P49652 whole entry): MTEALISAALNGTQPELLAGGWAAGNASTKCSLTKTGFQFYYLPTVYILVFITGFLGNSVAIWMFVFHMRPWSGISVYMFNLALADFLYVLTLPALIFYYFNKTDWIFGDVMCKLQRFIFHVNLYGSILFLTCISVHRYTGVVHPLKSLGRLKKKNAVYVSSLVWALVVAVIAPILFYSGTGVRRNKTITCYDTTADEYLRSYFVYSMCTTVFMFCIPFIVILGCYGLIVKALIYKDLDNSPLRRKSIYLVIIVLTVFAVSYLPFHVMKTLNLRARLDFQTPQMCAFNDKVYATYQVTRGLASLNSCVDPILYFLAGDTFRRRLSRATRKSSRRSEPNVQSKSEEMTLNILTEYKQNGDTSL
The experiment in a line: Stimulation of phospholipase C (inositol phosphate formation) in turkey erythrocyte membranes. Type of assay: biochemical. The essentials:
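Erythrocytes were labelled 18-24 h at 37 °C with [3H]myoinositol, and ghosts were made by hypotonic lysis. Ghosts (≈175 μg protein) were incubated 5 min at 30 °C in Hepes buffer pH 7.0 with 1 μM GTPγS and nucleotide analogs. Total [3H]inositol phosphates were purified by anion exchange; K0.5 averaged from 3-8 dose-response curves.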

The target of assay [7] is T5, P2Y receptor (taenia coli) (Cavia porcellus, UniProt P59902).
T5 construct: Relaxant responses mediated via P2Y receptors were examined in guinea pig taenia coli; from tissue; host or cells: guinea pig taenia coli (carbachol-contracted)
T5 sequence (P59902 whole entry): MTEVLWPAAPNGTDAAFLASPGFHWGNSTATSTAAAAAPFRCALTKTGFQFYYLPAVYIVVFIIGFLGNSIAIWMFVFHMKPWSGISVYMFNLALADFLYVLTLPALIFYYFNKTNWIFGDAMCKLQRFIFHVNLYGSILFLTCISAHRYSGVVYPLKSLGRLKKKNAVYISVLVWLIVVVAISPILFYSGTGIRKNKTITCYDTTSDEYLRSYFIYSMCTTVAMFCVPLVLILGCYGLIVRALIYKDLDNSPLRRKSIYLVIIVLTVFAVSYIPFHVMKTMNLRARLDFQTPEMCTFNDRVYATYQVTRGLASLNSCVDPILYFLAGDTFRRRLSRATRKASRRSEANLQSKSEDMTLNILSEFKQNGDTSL
The experiment in a line: Relaxation of carbachol-contracted guinea pig taenia coli. As to conditions: for activity/potency in words, taenia coli: guinea pig taenia coli. Summed up:
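Guinea pig taenia coli precontracted with 50 nM carbachol; relaxation to applied P2Y agonists expressed as percentage relaxation against negative log molar agonist concentration.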

Assay [8] addresses P2Y receptor (mesenteric artery). The experiment in a line: Relaxation of rabbit mesenteric artery. As to conditions: log molar units.
Assay [9] addresses T6, adenylyl cyclase linked P2Y receptor (C6 rat glioma cells) (Rattus norvegicus, UniProt Q9EPX4).
T6 construct: endogenous in cells; host or cells: C6 rat glioma cells
The experiment in a line: Inhibition of adenylyl cyclase in C6 rat glioma cells. Format: cell-based. The protocol:
This example illustrates the inhibition of adenylyl cyclase activity in C6 rat glioma cells, as a function of the presence of certain ATP analogs in the medium in which the C6 cells were cultured.
Cells were labelled by incubation for 2 hours in the presence of 1 to 2 mCi of tritiated adenine/ml in the medium. Cells were washed twice with HEPES (20 mM, pH 7.5)-buffered Eagle's medium and then preincubated for 10 minutes at 37° C. with fresh medium containing 200 μM 3-isobutyl-1-methylxanthine. Agonist incubations were initiated by the simultaneous addition of 10 μM isoproterenol and various concentrations of nucleotides. The reactions were stopped after 10 minutes of aspiration of the nucleotide-containing medium and addition of 1 ml of ice-cold 5% trichloroacetic acid.

[10] abbreviates: turkey erythrocyte membranes, mean ± S.E.M. for at least 2 determinations, read-out: phosphatidyl inositol metabolism (K0.5, nM) erythrocyte.

T6 sequence (Q9EPX4 whole entry): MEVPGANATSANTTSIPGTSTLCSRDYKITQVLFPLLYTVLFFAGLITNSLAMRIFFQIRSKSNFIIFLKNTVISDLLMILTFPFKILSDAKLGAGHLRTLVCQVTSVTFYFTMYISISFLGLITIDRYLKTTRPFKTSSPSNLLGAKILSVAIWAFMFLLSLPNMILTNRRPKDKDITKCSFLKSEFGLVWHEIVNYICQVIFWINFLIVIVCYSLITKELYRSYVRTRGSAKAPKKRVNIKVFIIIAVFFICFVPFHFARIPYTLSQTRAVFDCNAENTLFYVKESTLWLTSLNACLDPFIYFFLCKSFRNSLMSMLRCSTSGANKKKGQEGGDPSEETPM

In the case of `CC1(C)O[C@@H]2[C@H](O1)[C@@H](COP(=O)(O)OP(=O)(O)OP(=O)(O)O)O[C@H]2n1cnc2c(N)ncnc21` [2',3'-Isopropylidene-ATP, 2',3'-Isopropylidene adenosine 5'-triphosphate], the “activity/potency/selectivity in words, aorta” value in assay [1] (rabbit aorta endothelial P2Y receptor) was “high selectivity”. Moreover, the “activity/potency in words, bladder” value in assay [2] is reported as “limited activity in the urinary bladder”. For the same compound, the activation at 10 µM in assay [3] turned out to be 7.7%. In addition, in [4], the “overall activity in words, all preparations” value (shortened to “overall activity in words”) is given as “Neither was particularly active at either P2X or P2Y receptors”. Further, the “activity/potency in words, vas deferens” value in assay [5] was “inactive in the vas deferens”. For the same compound, in assay [6] (setting [10]), the EC50 stood at 201000 nM.
Take `Nc1nc(SCCc2ccc([N+](=O)[O-])cc2)nc2c1ncn2[C@@H]1O[C@H](COP(=O)(O)OP(=O)(O)OP(=O)(O)O)[C@@H](O)[C@H]1O` [2-(2-p-Nitrophenylethyl)-thio-ATP, 2[2-(p-Nitrophen)ethylthio]adenosine 5'-triphosphate]: in assay [1], the “relaxation pD2, aorta” value turned out to be 6.2. Also, the activation at 10 µM in assay [3] was 2.6%. Besides, the EC50 was 0.0316 µM in assay [7]; 12 ± 4 nM in assay [6] (setting [10]); 5 to 30 nM in [6] (turkey erythrocyte membranes, read-out: K0.5). Also, the “relaxation pD2, mes. artery” value in [8] was found to be 7.0. Moreover, the IC50 in assay [9] (C6 rat glioma cells, 10 μM isoproterenol, read-out: K0.5 values (in nM) for inhibition of adenylyl cyclase in C6 cells) is 1 ± 0.4 nM. The “selectivity for the adenylyl cyclase linked receptor, in words” value in [9] (versus phospholipase C linked receptor) is on record as “only moderate selectivity for C6 cell receptors”. For the same compound, in assay [6] (turkey erythrocyte membranes), the “activity/potency in words, turkey erythrocyte” value is “at least two orders of magnitude more potent”.
For `Nc1ncnc2c1ncn2[C@@H]1O[C@@H]2COP(=O)(OP(=O)(O)CP(=O)(O)O)O[C@H]2[C@H]1O` (stereo partly drawn) [3',5'-Cyclic-β,γ-methylene adenosine 5'-triphosphate], the “overall activity in words” value in assay [4] (listed as Cyclized β,γ-methylene ATP) was “without effect in all seven types of preparation tested”; in assay [4] (listed as β,γ-methylene-adenosine-3',5'-cyclic triphosphate), “greatly reduce or abolish activity within most P2X and P2Y preparations”. For the same compound, the EC50 in assay [6] (at 10^-5 M, read-out: phosphatidyl inositol metabolism (K0.5) erythrocyte, class symbol) is above 10000 nM.
In the case of `Nc1ncnc2c1ncn2[C@@H]1O[C@H](COP(=O)(O)OP(=O)(O)OP(=O)(O)O)[C@@H](N)[C@H]1O` [3'-Amino-3'deoxy-ATP, 3'-Amino-3'-deoxyadenosine 5'-triphosphate, reference compound], the “relaxation pD2, aorta” value in assay [1] worked out at 6.4. In addition, the “activity/potency in words, bladder” value in assay [2] was “more or less as potent as ATP”. Besides, in assay [3], the “activity/potency in words, saphenous artery” value is “inactive in the saphenous artery”. The figures for the EC50 in [7] and in assay [6] (setting [10]) were 3.98 µM and 193 nM, respectively. The “activity/potency in words, taenia coli” value in assay [7] was “almost as potent as ATP in the taenia coli”. Moreover, the “overall activity in words” value in [4] is listed as “generally enhanced potency at P2 receptors”. The “activity/potency in words, vas deferens” value in assay [5] is recorded as “more or less as potent as ATP”. Further, the “times more potent than ATP, turkey erythrocyte” value in assay [6] (relative to ATP) was “approximately 15 times”.
For `Nc1ncnc2c1ncn2[C@@H]1O[C@H](COP(=O)(O)OP(=O)(O)O)[C@@H](O)[C@H]1O` [ADP, adenosine 5'-diphosphate, reference compound], the “relaxation pD2, aorta” value in [1] is 5.2. In addition, the “activity/potency in words, bladder” value in assay [2] was “equipotent with ATP”. Moreover, the “activity/potency in words, taenia coli” value in assay [7] is recorded as “equipotent to ATP”. In assay [8], the “relaxation pD2, mes. artery” value worked out at 5.2. Further, in assay [9] (versus phospholipase C linked turkey erythrocyte receptor), the “selectivity for the adenylyl cyclase linked (C6 cell) receptor” value is listed as 120 -fold. For the same compound, the “activity/potency in words, vas deferens” value in assay [5] is “less potent than ATP”. Also, the EC50 in assay [6] (K0.5, turkey erythrocyte membranes, read from graph) is 3160 nM; in assay [6] (setting [10]), 8000 ± 2000 nM. Also, the “fold less potent than ATP, turkey erythrocyte” value in assay [6] (relative to ATP) is on record as 3 -fold.
`O=P(O)(O)OP(=O)(O)OP(=O)(O)OC[C@H]1O[C@@H](n2cnc3c2ncn2ccnc32)[C@H](O)[C@@H]1O` [N1,N^6 -etheno-ATP, reference compound]: in assay [2], the “activity/potency in words, bladder” value is on record as “limited activity in the urinary bladder”. Further, in assay [4], the “overall activity in words” value is “greatly reduce or abolish activity within most P2X and P2Y preparations”. Moreover, the “activity/potency in words, vas deferens” value in assay [5] is “inactive in the vas deferens”. Besides, the EC50 in assay [6] (setting [10]) was above 100000 nM.
